Reference: patent US20100048498A1, “STABLE NON-DIHYDRATE AZITHROMYCIN ORAL SUSPENSIONS” (priority 2004, published 2010)

Assays:
Format in all cases: physicochemical
[1] = Stability of non-dihydrate azithromycin in suspension (POS formulation II or bulk drug in water); SS-NMR quantification of form A
Method: The stability of various forms of non-dihydrate azithromycin, in water and in flavored oral suspensions, was evaluated. Specifically, non-dihydrate azithromycin forms G, M, N, F and J were separately used in POS formulation II. These POS formulations were constituted by mixing with 18 mls of water. The suspensions were then stored for 1, 5 and 10 days at either 5° C. or 30° C. Suspensions of bulk azithromycin forms G, M, N, F and J were also constituted with 18 mls of water and stored under the same conditions.
Upon conclusion of the storage time period the suspensions were filtered and suspended solids collected as described previously.

[2] = Effect of individual flavorings and sucrose on conversion of azithromycin form G to form A in pH 8.16 buffer; parameters: key: AC means all converted to form A; conditions: 18 mls pH 8.16 buffer, room temperature
Method: To evaluate a proposed excipient, the active dose of the azithromycin was suspended with the desired amount of potential excipient in a 0.1 M phosphate buffer system adjusted to a pH of 8.16. The buffer system was created by dissolving 13.738 g of NaH2PO4.H2O in 900 ml of water, adjusting the pH to 8.16 with sodium hydroxide, and diluting the solution to 1 liter with water. The sample, once constituted with buffer, was then stored at room temperature for the desired constituted product shelf-life. The azithromycin product was then isolated through filtration, and the resulting solid filtrate analyzed by a Solid-State Nuclear Magnetic Resonance method described previously that allows for quantitation of the dihydrate form present.
The effect of various individual flavoring components and of sucrose upon conversion of azithromycin form G to azithromycin dihydrate (form A), in suspensions, were evaluated as follows.
An 820 mg dose of form G azithromycin was weighed and mixed with 200 mg of each flavoring or sucrose. The mass of each flavoring, used in this test, was chosen to match that of the anticipated required amount for effective flavoring in the constituted POS. In this example, five flavorings, specifically artificial crème de vanilla, B&C banana, Trusil banana, Trusil cherry and artificial grape were investigated in addition to sucrose. Each of the binary samples were then constituted with 18 mls of pH=8.16 buffer and stored for 1, 5 and 10-days at room temperature.
A control suspension of azithromycin form G constituted with 18 mls of pH=8.16 buffer was run with each series of experiments using the same storage conditions. Upon completion of the constituted storage time period these samples were filtered to isolate drug product and analyzed using the SS-NMR method to quantify the amount of azithromycin dihydrate present.

[3] = Effect of cyclodextrins on non-dihydrate azithromycin form conversion in constituted POS formulation II; conditions: 24 hours room temperature
Method: The effect of adding a complexing agent such as cyclodextrin on the stability of non-dihydrate azithromycin forms G, M and F against conversion in a constituted POS formulation were evaluated.
Forms G, M and F of azithromycin were formulated into POS formulation II. Various cyclodextrins were added to the POS formulation II and the resulting samples were constituted with 18 mls of water. The suspensions were then stored for 24 hours at room temperature. At the end of the storage time, the suspensions were filtered and the recovered solids were weighed and analyzed by SS-NMR to quantify the presence of azithromycin dihydrate (form A). The control samples were formulated into formulation II with non-dihydrate azithromycin form G, M and F without cyclodextrins and were constituted with water, stored, filtered and analyzed identically to the cyclodextrin samples described above. A control, which had no cyclodextrin was run with each series of experiments. The SS-NMR data are presented in Tables 10, 11, 12 and the results are given as weight percent (% wt), of the recovered azithromycin sample.

Structure (SMILES): CC[C@H]1OC(=O)[C@H](C)[C@@H](O[C@H]2C[C@@](C)(OC)[C@@H](O)[C@H](C)O2)[C@H](C)[C@@H](O[C@@H]2O[C@H](C)C[C@H](N(C)C)[C@H]2O)[C@](C)(O)C[C@@H](C)CN(C)[C@H](C)[C@@H](O)[C@]1(C)O [Form G, azithromycin sesquihydrate]
- % A (azithromycin dihydrate, form A, of recovered azithromycin) ([1]; Bulk Drug in 18 mls water, 5° C., Day 1): 1%
- % A (azithromycin dihydrate, form A, of recovered azithromycin) ([1]; Bulk Drug in 18 mls water, 5° C., Day 5): 6%
- % A (azithromycin dihydrate, form A, of recovered azithromycin) ([1]; Bulk Drug in 18 mls water, 5° C., Day 10): 12%
- % A (azithromycin dihydrate, form A, of recovered azithromycin) ([1]; Bulk Drug in 18 mls water, 30° C., Day 1): 3%
- % A (azithromycin dihydrate, form A, of recovered azithromycin) ([1]; Bulk Drug in 18 mls water, 30° C., Day 5): 26%
- % A (azithromycin dihydrate, form A, of recovered azithromycin) ([1]; Bulk Drug in 18 mls water, 30° C., Day 10): 73%
- % A (azithromycin dihydrate, form A, of recovered azithromycin) ([1]; Formulation II constituted with 18 mls water, 5° C., Day 1): 72%
- % A (azithromycin dihydrate, form A, of recovered azithromycin) ([1]; Formulation II constituted with 18 mls water, 5° C., Day 5): 75%
- % A (azithromycin dihydrate, form A, of recovered azithromycin) ([1]; Formulation II constituted with 18 mls water, 5° C., Day 10): 78%
- % A (azithromycin dihydrate, form A, of recovered azithromycin) ([1]; Formulation II constituted with 18 mls water, 30° C., Day 1): 82%
- % A (azithromycin dihydrate, form A, of recovered azithromycin) ([1]; Formulation II constituted with 18 mls water, 30° C., Day 5): 74%
- % A (azithromycin dihydrate, form A, of recovered azithromycin) ([1]; Formulation II constituted with 18 mls water, 30° C., Day 10): 76%
- Δ % Form A ([2]; 820 mg form G + 200 mg Artificial Crème de Vanilla Flavor, constituted 1 day, listed as form G, sesquihydrate): did not exhibit conversion
- Δ % Form A ([2]; 820 mg form G + 200 mg Artificial Crème de Vanilla Flavor, constituted 1 day, sesquihydrate): 0%
- Δ % Form A ([2]; 820 mg form G + 200 mg Artificial Crème de Vanilla Flavor, constituted 5 days): 4%
- Δ % Form A ([2]; 820 mg form G + 200 mg Artificial Crème de Vanilla Flavor, constituted 10 days): 30%
- Δ % Form A ([2]; 820 mg form G + 200 mg Artificial Grape Flavor, constituted 1 day): 57%
- Δ % Form A ([2]; 820 mg form G + 200 mg Artificial Grape Flavor, constituted 5 days): 75%
- Δ % Form A ([2]; 820 mg form G + 200 mg Artificial Grape Flavor, constituted 10 days): AC
- Δ % Form A ([2]; 820 mg form G + 200 mg B&C Banana Flavor, constituted 1 day, listed as form G, sesquihydrate): did not exhibit conversion
- Δ % Form A ([2]; 820 mg form G + 200 mg B&C Banana Flavor, constituted 1 day, sesquihydrate): 0%
- Δ % Form A ([2]; 820 mg form G + 200 mg B&C Banana Flavor, constituted 5 days): 27%
- Δ % Form A ([2]; 820 mg form G + 200 mg B&C Banana Flavor, constituted 10 days): AC
- Δ % Form A ([2]; 820 mg form G + 200 mg Sucrose, constituted 1 day): 2%
- Δ % Form A ([2]; 820 mg form G + 200 mg Sucrose, constituted 5 days): 1%
- Δ % Form A ([2]; 820 mg form G + 200 mg Sucrose, constituted 10 days, listed as form G, sesquihydrate): only minimal conversion
- Δ % Form A ([2]; 820 mg form G + 200 mg Sucrose, constituted 10 days, sesquihydrate): 6%
- Δ % Form A ([2]; 820 mg form G + 200 mg Trusil Banana Flavor, constituted 1 day): 32%
- Δ % Form A ([2]; 820 mg form G + 200 mg Trusil Banana Flavor, constituted 5 days): 57%
- Δ % Form A ([2]; 820 mg form G + 200 mg Trusil Banana Flavor, constituted 10 days): AC
- Δ % Form A ([2]; 820 mg form G + 200 mg Trusil Cherry Flavor, constituted 1 day): 32%
- Δ % Form A ([2]; 820 mg form G + 200 mg Trusil Cherry Flavor, constituted 5 days): 75%
- Δ % Form A ([2]; 820 mg form G + 200 mg Trusil Cherry Flavor, constituted 10 days): AC
- % Form A ([3]; POS Formulation II + Hydroxypropyl β-cyclodextrin 1.2 % w/w, Series 2, 18 mls water): 4.0%
- % Form A ([3]; POS Formulation II + Hydroxypropyl β-cyclodextrin 11.1 % w/w, Series 3, 18 mls water): 4.9%
- % Form A ([3]; POS Formulation II + Sulfobutylether β-cyclodextrin 1.2 % w/w, Series 2, 18 mls water): 14.4%
- % Form A ([3]; POS Formulation II + Sulfobutylether β-cyclodextrin 11.1 % w/w, Series 3, 18 mls water): 7.0%
- % Form A ([3]; POS Formulation II + α-cyclodextrin 1.2 % w/w, Series 1, 18 mls water): 4.8%
- % Form A ([3]; POS Formulation II + β-cyclodextrin 1.2 % w/w, Series 2, 18 mls water): 8.3%
- % Form A ([3]; POS Formulation II + γ-cyclodextrin 1.2 % w/w, Series 1, 18 mls water): 13.4%
- % Form A ([3]; POS Formulation II, no cyclodextrin (Control), Series 1, 18 mls water): 68.3%
- % Form A ([3]; POS Formulation II, no cyclodextrin (Control), Series 2, 18 mls water): 46.5%
- % Form A ([3]; POS Formulation II, no cyclodextrin (Control), Series 3, 18 mls water): 67.9%
